The target in test [1] is T1, catalytic domain of human stromelysin (MMP-3) (Homo sapiens, UniProt P08254).
T1 construct: enzymatic activity of the catalytic domain of human stromelysin (MMP-3); made in house
In words: Enzymatic activity of the catalytic domain of human stromelysin (MMP-3), fluorogenic substrate. Conditions: 15 min preincubation, pH 7.5, fluorescence 328/393 nm. It is filed as biochemical. Here is the method:
(§1) The two enzymes, i.e., stromelysin (MMP-3) and neutrophilic collagenase (MMP-8), were prepared as described in Ye et al. (Biochemistry; 31 (1992) pages 11231-11235). For measuring enzymatic activity or the effect of an enzyme inhibitor, 70 μl of buffer solution and 10 μl of enzyme solution are incubated, for 15 minutes and at a physiological pH, with 10 μl of a 10% (v/v) aqueous solution of dimethyl sulfoxide containing the enzyme inhibitor, where appropriate. After 10 μl of a 10% (v/v) aqueous solution of dimethyl sulfoxide containing 1 mmol of the substrate/l have been added, the enzyme reaction is monitored by fluorescence spectroscopy (328 nm (ex)/393 nm(em)).
(§2) The enzyme activity is recorded as increase in […]/minute. The IC50 values listed in table 2 are determined as the inhibitor concentrations that in each case lead to 50% inhibition of the enzyme.
(§3) The buffer solution contains 0.05% Brij (Sigma, Deisenhofen, Germany) and also 0.1 mol of Tris/HCl/l, 0.1 mol of NaCl/l, 0.01 mol of CaCl2/l and 0.1 mol of piperazine-N,N′-bis[2-ethanesulfonic acid]/l (pH=7.5). The enzyme solution contains 5 μg/ml of one of the enzyme domains prepared as described in Ye et al. The substrate solution contains 1 mmol of the fluorogenic substrate (7-methoxycoumarin-4-yl)acetyl-Pro-Leu-Gly-Leu-3-(2′,4′-dinitrophenyl)-L-2,3-diaminopropionyl-Ala-Arg-NH2/A (Bachem, Heidelberg, Germany).

In test [2] the target is T2, catalytic domain of human neutrophilic collagenase (MMP-8) (Homo sapiens, UniProt P22894).
T2 construct: catalytic domain of human stromelysin (MMP-3) and neutrophilic collagenase (MMP-8); made in house
In words: Enzymatic activity of the catalytic domain of human neutrophilic collagenase (MMP-8), fluorogenic substrate. It is filed as biochemical. As to conditions: 15 min preincubation, pH 7.5, fluorescence 328/393 nm. Here is the method:
as §1, §2, §3

Bounds are passed on as bounds.

T2 sequence (P22894 100-262 limits assumed): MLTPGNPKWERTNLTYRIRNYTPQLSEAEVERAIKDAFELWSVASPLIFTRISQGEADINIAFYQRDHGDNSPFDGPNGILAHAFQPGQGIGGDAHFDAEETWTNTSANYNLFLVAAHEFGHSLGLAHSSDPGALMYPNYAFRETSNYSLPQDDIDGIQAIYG
T1 sequence (P08254 100-272 limits assumed): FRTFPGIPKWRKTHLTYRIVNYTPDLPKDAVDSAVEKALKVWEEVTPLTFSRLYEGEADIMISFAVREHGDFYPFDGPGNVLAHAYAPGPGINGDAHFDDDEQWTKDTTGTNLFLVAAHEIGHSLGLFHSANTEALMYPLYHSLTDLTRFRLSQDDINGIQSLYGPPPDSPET

In general, IC50 refers to the midpoint of a concentration-inhibition curve. A high value points to lower potency. For the compound `O=C(NO)C1C[C@H]2CCC[C@H]2N1S(=O)(=O)c1ccc(-c2ccc(N3CCN(c4ccc(F)cc4)CC3)cc2)cc1` (single isomer, unassigned) [Example 63], the IC50 turned out to be 200 nM in test [1] and 3700 nM in test [2].
The like results for `O=C(NO)C1C[C@H]2CCC[C@H]2N1S(=O)(=O)c1ccc(I)cc1` (single isomer, unassigned) [Example 65] were, in that order, 300 nM and 100 nM.
The matching figures for `O=C(O)C1C[C@H]2CCC[C@H]2N1S(=O)(=O)CCc1ccc(-c2ccc(Br)cc2)cc1` (stereo partly shown) [Example 13]: 200 nM and 200 nM.
The matching figures for `O=C(O)[C@H]1C[C@H]2CCC[C@H]2N1S(=O)(=O)c1ccc(-c2ccc(N3CCCC3)cc2)cc1` [Example 21]: 160 nM and 4 nM.
For the compound `O=C(O)[C@H]1C[C@H]2CCC[C@H]2N1S(=O)(=O)c1ccc(-c2ccc(N3CCN(c4ccc(F)cc4)CC3)cc2)cc1` [Example 29], the IC50 in test [1] was over 10000 nM; in test [2] it was 10000 nM.
Consider `O=C(NO)[C@H]1C[C@H]2CCC[C@H]2N1S(=O)(=O)/C=C/c1ccccc1` [Example 57], for which the results for the IC50 in test [1] and in test [2] were 330 nM and 320 nM, respectively.
`O=C(NO)[C@H]1C[C@H]2CCC[C@H]2N1S(=O)(=O)c1ccc(-c2ccc([N+](=O)[O-])cc2)cc1` [Example 61]: the IC50 in test [1] is 22 nM; in test [2], 3 nM.
The matching figures for `O=C(NO)[C@H]1C[C@H]2CCC[C@H]2N1S(=O)(=O)c1ccc(-c2ccccc2)cc1` [Example 64]: 100 nM and 20 nM.
